In the supplement of paper PMC11451515:

Legend:
Details in all cases: 48 h
P12-Ichikawa [1] = experiment: cell viability relative to DMSO control; higher = less cytotoxic
Outline: (§1)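 Viability, reported as a per-plate percentage of DMSO wells with cell-free wells as background, came from CellTiter-Glo One luminescence. Reading took place after 48 h at 37°C. Before that, NOMO1 or SEM (500 cells/well) or P12-Ichikawa (1000 cells/well) leukemia cells, adapted for at least four passages in each medium, were seeded in 1536-well plates (5 μl) and pin-dosed with library compounds in DMSO, 47 μM to 0.79 nM over 11 threefold points.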

SEM cells [2] = experiment: as above
Outline: as §1

P12-Ichikawa [3] = experiment: AUC of viability dose-response curve (% viability x log10 dose units); higher = less sensitive
Outline: (§2)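 Over 48 h at 37°C, leukemia cells in 1536-well plates (500 or 1000 cells/well), adapted to each medium, received library compounds in DMSO at 11 threefold doses from 47 μM to 0.79 nM. CellTiter-Glo One luminescence, normalised per plate to DMSO and cell-free wells, was fitted by a four-parameter log-logistic function of log10 dose. The area under the curve was then integrated by trapezoidal rule, after scaling curves above full viability and removing those that failed quality control.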

SEM cells [4] = experiment: as above
Outline: as §2

NOMO1 = experiment: as above
Outline: as §2

CC/C=C\C[C@H]1C(=O)CC[C@@H]1CC(=O)OC
cell viability [%]
Details	HPLM + 10% dialyzed FBS	RPMI 5 mM glucose + 10% FBS	RPMI 5 mM glucose + 10% dialyzed FBS
P12-Ichikawa [1], 0.000781 µM	121	–	122
P12-Ichikawa [1], 0.00234 µM	119	–	129
P12-Ichikawa [1], 0.00702 µM	126	–	124
P12-Ichikawa [1], 0.0211 µM	125	–	121
P12-Ichikawa [1], 0.0632 µM	126	–	131
P12-Ichikawa [1], 0.19 µM	126	–	125
P12-Ichikawa [1], 0.569 µM	117	–	125
P12-Ichikawa [1], 1.71 µM	115	–	126
P12-Ichikawa [1], 5.12 µM	115	–	125
P12-Ichikawa [1], 15.4 µM	114	–	116
P12-Ichikawa [1], 46.1 µM	108	–	109
SEM cells [2], 0.000781 µM	76	60.3	78
SEM cells [2], 0.00234 µM	118	109	112
SEM cells [2], 0.00702 µM	130	101	137
SEM cells [2], 0.0211 µM	130	114	147
SEM cells [2], 0.0632 µM	125	109	153
SEM cells [2], 0.19 µM	118	100	127
SEM cells [2], 0.569 µM	125	126	135
SEM cells [2], 1.71 µM	118	102	120
SEM cells [2], 5.12 µM	113	99.3	122
SEM cells [2], 15.4 µM	114	109	112
SEM cells [2], 46.1 µM	103	88.9	120

AUC of viability dose-response curve
Details	NOMO1	P12-Ichikawa [3]	SEM cells [4]
HPLM + 10% dialyzed FBS	470	460	469
RPMI 5 mM glucose + 10% FBS	440	451	451
RPMI 5 mM glucose + 10% dialyzed FBS	449	470	461

C=C(c1ccc(C(=O)O)cc1)c1cc2c(cc1C)C(C)(C)CCC2(C)C
Details	cell viability [%]
P12-Ichikawa [1], HPLM + 10% dialyzed FBS, 0.000781 µM	113
P12-Ichikawa [1], HPLM + 10% dialyzed FBS, 0.00234 µM	119
P12-Ichikawa [1], HPLM + 10% dialyzed FBS, 0.00702 µM	121
P12-Ichikawa [1], HPLM + 10% dialyzed FBS, 0.0211 µM	121
P12-Ichikawa [1], HPLM + 10% dialyzed FBS, 0.0632 µM	126
P12-Ichikawa [1], HPLM + 10% dialyzed FBS, 0.19 µM	129
P12-Ichikawa [1], HPLM + 10% dialyzed FBS, 0.569 µM	125
P12-Ichikawa [1], HPLM + 10% dialyzed FBS, 1.71 µM	120
P12-Ichikawa [1], HPLM + 10% dialyzed FBS, 5.12 µM	124
P12-Ichikawa [1], HPLM + 10% dialyzed FBS, 15.4 µM	117
P12-Ichikawa [1], HPLM + 10% dialyzed FBS, 46.1 µM	114
SEM cells [2], RPMI 5 mM glucose + 10% dialyzed FBS, 0.000781 µM	95
SEM cells [2], RPMI 5 mM glucose + 10% dialyzed FBS, 0.00234 µM	110
SEM cells [2], RPMI 5 mM glucose + 10% dialyzed FBS, 0.00702 µM	134
SEM cells [2], RPMI 5 mM glucose + 10% dialyzed FBS, 0.0211 µM	116
SEM cells [2], RPMI 5 mM glucose + 10% dialyzed FBS, 0.0632 µM	116
SEM cells [2], RPMI 5 mM glucose + 10% dialyzed FBS, 0.19 µM	125
SEM cells [2], RPMI 5 mM glucose + 10% dialyzed FBS, 0.569 µM	120
SEM cells [2], RPMI 5 mM glucose + 10% dialyzed FBS, 1.71 µM	118
SEM cells [2], RPMI 5 mM glucose + 10% dialyzed FBS, 5.12 µM	111
SEM cells [2], RPMI 5 mM glucose + 10% dialyzed FBS, 15.4 µM	99.3
SEM cells [2], RPMI 5 mM glucose + 10% dialyzed FBS, 46.1 µM	83.5

AUC of viability dose-response curve
Details	NOMO1	P12-Ichikawa [3]	SEM cells [4]
HPLM + 10% dialyzed FBS	422	477	465
RPMI 5 mM glucose + 10% FBS	434	470	465
RPMI 5 mM glucose + 10% dialyzed FBS	431	468	461

COc1cc2nc(N3CCN(C(=O)C4COc5ccccc5O4)CC3)nc(N)c2cc1OC (centres undefined)
cell viability [%], HPLM + 10% dialyzed FBS
Details	P12-Ichikawa [1]	SEM cells [2]
0.000781 µM	122	123
0.00234 µM	125	125
0.00702 µM	137	115
0.0211 µM	127	126
0.0632 µM	129	122
0.19 µM	132	128
0.569 µM	132	113
1.71 µM	131	132
5.12 µM	115	120
15.4 µM	112	119
46.1 µM	82.3	91.4

AUC of viability dose-response curve
Details	NOMO1	P12-Ichikawa [3]	SEM cells [4]
HPLM + 10% dialyzed FBS	439	457	469
RPMI 5 mM glucose + 10% FBS	452	461	450
RPMI 5 mM glucose + 10% dialyzed FBS	456	467	447

COc1ccc(/C=C\c2cc(OC)c(OC)c(OC)c2)cc1NC(=O)[C@H](N)CO
cell viability [%], RPMI 5 mM glucose + 10% FBS
Details	P12-Ichikawa [1]	SEM cells [2]
0.000781 µM	121	104
0.00234 µM	144	118
0.00702 µM	125	115
0.0211 µM	50.9	58.1
0.0632 µM	24.6	15
0.19 µM	13.8	11.1
0.569 µM	9.28	14.7
1.71 µM	7.31	7.29
5.12 µM	8.08	6.77
15.4 µM	4.52	3.55
46.1 µM	4.09	3.19

AUC of viability dose-response curve
Details	NOMO1	P12-Ichikawa [3]	SEM cells [4]
HPLM + 10% dialyzed FBS	209	179	190
RPMI 5 mM glucose + 10% FBS	188	157	167
RPMI 5 mM glucose + 10% dialyzed FBS	206	202	186

C[C@@H]1[C@H]\2[C@H](O)[C@H]3[C@H](N(C)C)\C(=C(C(N)=O)/C(=O)[C@@]3(O)\C(=C2C(=O)C4=C(O)C=CC=C14)O)O
cell viability [%]
Details	HPLM + 10% dialyzed FBS	RPMI 5 mM glucose + 10% FBS	RPMI 5 mM glucose + 10% dialyzed FBS
P12-Ichikawa [1], 0.000781 µM	114	–	–
P12-Ichikawa [1], 0.00234 µM	122	–	–
P12-Ichikawa [1], 0.00702 µM	125	–	–
P12-Ichikawa [1], 0.0211 µM	127	–	–
P12-Ichikawa [1], 0.0632 µM	129	–	–
P12-Ichikawa [1], 0.19 µM	126	–	–
P12-Ichikawa [1], 0.569 µM	131	–	–
P12-Ichikawa [1], 1.71 µM	129	–	–
P12-Ichikawa [1], 5.12 µM	127	–	–
P12-Ichikawa [1], 15.4 µM	126	–	–
P12-Ichikawa [1], 46.1 µM	113	–	–
SEM cells [2], 0.000781 µM	–	115	123
SEM cells [2], 0.00234 µM	–	131	122
SEM cells [2], 0.00702 µM	–	110	123
SEM cells [2], 0.0211 µM	–	127	122
SEM cells [2], 0.0632 µM	–	109	108
SEM cells [2], 0.19 µM	–	145	133
SEM cells [2], 0.569 µM	–	122	149
SEM cells [2], 1.71 µM	–	121	144
SEM cells [2], 5.12 µM	–	126	113
SEM cells [2], 15.4 µM	–	102	89.9
SEM cells [2], 46.1 µM	–	123	93.4

AUC of viability dose-response curve
Details	NOMO1	P12-Ichikawa [3]	SEM cells [4]
HPLM + 10% dialyzed FBS	470	473	468
RPMI 5 mM glucose + 10% FBS	465	462	473
RPMI 5 mM glucose + 10% dialyzed FBS	472	462	440
